Experiments:
[1] = target: T1, hNurr1_RXRγFL (NURR-1/RXRγ heterodimer) (Homo sapiens, UniProt P48443); assay: Transactivation assay, NURR-1-Gal4/RXRγ luciferase reporter in Cos-7 cells; assay type: cell-based; conditions: for Emax: COS-7, level of induction relative to XCT0135908 at 2×10^-5 M = 100%, read-out: Eff hNurr1_RXRγFL (efficacy relative to the reference XCT0135908); for EC50: Cos-7 cells, Gal4 luciferase reporter
T1 construct: EC50 hNurr1_RXRγFL; other: Cos-7 cells, Gal4 luciferase reporter; other: level of induction relative to XCT0135908 at; hNurr1_RXRγFL
T1 sequence (P48443 whole entry, the tested form may be a part): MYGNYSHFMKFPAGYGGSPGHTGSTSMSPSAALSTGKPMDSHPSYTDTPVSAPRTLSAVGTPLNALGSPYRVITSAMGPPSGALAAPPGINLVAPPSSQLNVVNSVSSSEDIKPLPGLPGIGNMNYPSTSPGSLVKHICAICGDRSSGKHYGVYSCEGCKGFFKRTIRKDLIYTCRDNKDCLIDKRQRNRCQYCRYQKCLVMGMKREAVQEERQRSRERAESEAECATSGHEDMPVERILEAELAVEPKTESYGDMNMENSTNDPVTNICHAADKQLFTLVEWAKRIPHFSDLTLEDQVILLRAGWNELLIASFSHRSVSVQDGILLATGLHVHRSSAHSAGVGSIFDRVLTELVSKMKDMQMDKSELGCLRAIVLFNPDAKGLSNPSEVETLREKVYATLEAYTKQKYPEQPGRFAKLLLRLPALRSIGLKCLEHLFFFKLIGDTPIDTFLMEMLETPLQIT
T1 sequence (P43354 328-598 partner): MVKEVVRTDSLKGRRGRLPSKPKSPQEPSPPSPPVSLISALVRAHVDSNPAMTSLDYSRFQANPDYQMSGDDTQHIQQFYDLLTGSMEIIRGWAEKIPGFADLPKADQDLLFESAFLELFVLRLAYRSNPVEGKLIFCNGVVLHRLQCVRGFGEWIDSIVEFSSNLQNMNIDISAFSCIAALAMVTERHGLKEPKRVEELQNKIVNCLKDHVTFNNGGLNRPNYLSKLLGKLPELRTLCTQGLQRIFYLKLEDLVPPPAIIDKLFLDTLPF
Procedure: (§1) To start with, using an in vitro assay, the capacity of the compounds according to the invention to behave as an activator of the heterodimers formed by the NURR-1 nuclear receptor and the RXR nuclear receptors was measured.
(§2) A transactivation assay was used as a primary screening test. Cos-7 cells were co-transfected with a plasmid expressing a chimera of the human receptor NURR-1-Gal4, a plasmid expressing the RXR human receptor (RXRα or RXRγ receptor) and a reporter plasmid 5Gal4pGL3-TK-Luc. The transfections were carried out using a chemical agent (Jet PEI).
(§3) The transfected cells were distributed in 384-well plates and left to stand for 24 hours.
(§4) After 24 hours, the culture medium was changed. The test products were added (final concentration between 10^−4 and 3.10^−10 M) in the culture medium. After incubation overnight, the expression of luciferase was measured after addition of “SteadyGlo” in accordance with the manufacturer's (Promega) instructions.
(§5) 4-[[6-Methyl-2-phenyl-5-(2-propenyl)-4-pyrimidinyl]amino]benzoic acid (called XCT0135908) at 2×10^−5 M (RXR agonist) was used as reference.
(§6) The levels of induction were calculated in relation to the basal activity of each heterodimer. The results were expressed as a percentage of the level of induction relative to the level of induction obtained with the reference (the level of induction of the reference is arbitrarily equal to 100%).

[2] = target: T2, hNurr1_RXRαFL (NURR-1/RXRα heterodimer) (Homo sapiens, UniProt P19793); assay: Transactivation assay, NURR-1-Gal4/RXRα luciferase reporter in Cos-7 cells; assay type: cell-based; conditions: for Emax: COS-7, level of induction relative to XCT0135908 at 2×10^-5 M = 100%, read-out: Eff hNurr1_RXRαFL (efficacy relative to the reference XCT0135908); for EC50: Cos-7 cells, Gal4 luciferase reporter
T2 construct: hNurr1_RXRαFL
T2 sequence (P43354 328-598): as the sequence (P43354 328-598 partner) above
T2 sequence (P19793 whole entry, the tested form may be a part): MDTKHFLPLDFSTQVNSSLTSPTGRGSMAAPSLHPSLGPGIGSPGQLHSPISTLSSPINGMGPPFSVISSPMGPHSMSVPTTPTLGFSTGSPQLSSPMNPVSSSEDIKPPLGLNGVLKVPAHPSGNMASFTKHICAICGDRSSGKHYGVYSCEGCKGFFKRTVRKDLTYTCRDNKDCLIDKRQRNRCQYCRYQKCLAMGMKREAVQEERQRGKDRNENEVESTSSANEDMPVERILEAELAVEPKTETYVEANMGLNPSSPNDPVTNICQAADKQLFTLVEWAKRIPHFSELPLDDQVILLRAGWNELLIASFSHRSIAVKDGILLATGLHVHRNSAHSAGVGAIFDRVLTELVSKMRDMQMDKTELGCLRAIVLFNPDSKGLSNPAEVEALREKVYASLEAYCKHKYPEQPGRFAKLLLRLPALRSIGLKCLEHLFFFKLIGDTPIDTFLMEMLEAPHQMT
Procedure: as §1, §2, §3, §4, §5, §6

[3] = Cerebral and plasma pharmacokinetic profile after oral administration in mice; assay type: in vivo, male C57Bl6 mouse; conditions: oral administration 10 mg/kg in mice; for Kp: male, C57Bl6, mouse, brain/plasma, read-out: Ratio AUCbrain/AUCplasma; for AUCbrain: AUC0-t, up to 8 h
Procedure: The protocol used was as follows:
Male C57Bl6 mice (25-30 g) from Janvier, Le Genest-St-Isle, France, were used for this study (12 mice per dose).
The animals were fed with standard rodent feed (Purina Mills, St. Louis, Mo.), and were placed in cages and subjected to 12 h/12 h light/dark cycles, the room temperature being maintained at 22±2° C. and the humidity level at 55±10%.
The mice were not fasted before administration. Water was supplied ad libitum throughout the study.
The test compound was administered orally at 10 mg/kg.
For oral administration at 10 mg/kg, the animals were fed by gavage with 10 mL/kg of a suspension of the test compound, prepared in 1% methylcellulose 400 cp.
The animals were sacrificed under anaesthesia at times 15 min, 30 min, 1 h, 3 h, 6 h and 8 h after gavage.
At each time, and on each sacrificed animal, the blood was collected and the brain was removed.
1 mL of blood collected in 1.5 mL tubes containing 20 μL of evaporated anticoagulant (solution of sodium heparinate at 1000 UI/mL) was centrifuged at 4500 g for 3 min to give approximately 400 μL of plasma. The plasma was divided into 2 aliquots of 200 μL, which were stored at −20° C. until extraction by protein precipitation, followed by analysis by liquid chromatography coupled with tandem mass spectrometry (LC-MS/MS) for the quantification of the test compound.
Immediately after their removal, the brains were plunged into liquid nitrogen and then stored at −20° C. for analysis. The brains were subsequently ground in the presence of aqueous/organic solvent mixture to give a homogenate. These homogenates were subsequently centrifuged and the test compound was extracted from the resulting supernatant, by liquid-liquid extraction, and then quantified by LC-MS/MS.
The pharmacokinetic parameters were determined on the basis of a non-compartmental approach in Excel. The area under the curve (AUC0-t) was determined by the linear trapezoidal method.

[4] = test system: mice treated with 1-methyl-4-phenyl-1,2,3,6-tetrahydropyridine (MPTP); assay: Neuroprotection in MPTP-treated mice, striatal dopamine; assay type: in vivo, male C57BL6/J mice; conditions: oral, twice daily for 11 days; MPTP 20 or 25 mg/kg i.p. for 5 days; FIGS. 1 to 3
Procedure: The compound of Example 2 was tested on a model of mice treated with 1-methyl-4-phenyl-1,2,3,6-tetrahydropyridine (MPTP), in order to confirm its potential activity. MPTP is a neurotoxin which gives rise to permanent symptoms of Parkinson's disease by destroying certains neurons in the substantia nigra of the brain. The protocol used was as follows.
Male C57BL6/J mice, aged 10-12 weeks at the beginning of the studies, were divided into groups of 8 animals. The compound was administered orally and twice daily for 11 days in total. Administration was commenced 3 days before treatment with the MPTP toxin at 20 or 25 mg/kg. MPTP was administered once daily by intraperitoneal injection for 5 days. The administration of the test compound was continued for 3 days after the treatment with MPTP. One group of mice received the vehicle alone (0.5% methylcellulose solution). The animals were euthanized after the final gavage, and the striatum was removed. The dopamine was extracted from the striatum, and the amount of dopamine (DA), expressed in ng per g of striatum (mean±SEM), was measured by high-performance liquid chromatography (HPLC) with electrochemical detection.
The results obtained were reported in attached FIGS. 1 to 3.

Compound	Emax [1] [%]	EC50 [1] [µM]	Emax [2] [%]	EC50 [2] [µM]	Kp [3]	AUCbrain [3]	Effect on MPTP-induced reduction of dopamine level in the striatum [4]
CC(C)(C)c1cccc(S(=O)(=O)n2c(CCCC(=O)O)cc3cc(C(F)(F)F)ccc32)c1 [Example 8, 1-[[3-(1,1-Dimethylethyl)phenyl]sulphonyl]-5-(trifluoromethyl)-1H-indole-2-butanoic acid]	70	0.02	100	0.026	0.87	2371	reduce, in a dose-dependent way, the action of MPTP
CC(C)c1cccc(S(=O)(=O)n2c(CCCC(=O)O)cc3cc(C(F)(F)F)ccc32)c1 [Example 2, 1-[[3-(1-Methylethyl)phenyl]sulphonyl]-5-(trifluoromethyl)-1H-indole-2-butanoic acid]	79	0.113	86	0.073	0.67	3318	reduce, in a dose-dependent way, the action of MPTP
CC(C)(C)c1cccc(S(=O)(=O)n2c(CCCCC(=O)O)cc3cc(C(F)(F)F)ccc32)c1 [Example 10, 1-[[3-(1,1-Dimethylethyl)phenyl]sulphonyl]-5-(trifluoromethyl)-1H-indole-2-pentanoic acid]	88	0.077	104	0.055	0.8	1689	reduce, in a dose-dependent way, the action of MPTP
